“Also recorded” adds a separate entry of the source.
Experiments:
mouse L1210 leukemia = mouse L1210 leukemia model; Atwell, Cain and Seelye 1972; cited from earlier work
Staphylococcus aureus = experiment: Antibacterial activity
Xanthomonas phaseoli = experiment: Antibacterial activity
Sarcina lutea = experiment: Antibacterial activity
[1] = system: Micrococcus lysodeikticus; experiment: Antibacterial activity
P388 leukemia = P388 leukemia in vivo (increase in lifespan of mice, i.p. tumour); conditions: for active (P388): P388, at the stated dose
Lewis lung carcinoma = Lewis lung carcinoma in vivo (increase in lifespan of mice, i.v. tumour); conditions: for active (Lewis lung): at the stated dose; for ILS (percentage increase in lifespan): values without asterisk, controls 17 days
Alcaligenes viscolactis = experiment: Antibacterial activity
Bacillus subtilis = experiment: Antibacterial activity
Streptococcus faecalis = experiment: Antibacterial activity
Aerobacter aerogenes = experiment: Antibacterial activity
Neisseria catarrhalis = experiment: Antibacterial activity
Escherichia coli = experiment: Antibacterial activity
[2] = Potency and antitumour activity in in vivo test systems (general statements)
[3] = 3'-substituted AMSA analogues; earlier publications; cited from earlier work
[4] = Lewis lung, at OD on days 1, 5, 9, >40% statistically significant

Structure (SMILES): CS(=O)(=O)Nc1ccc(Nc2c3ccccc3nc3ccccc23)cc1 [AMSA, 4'-(9-acridinylamino) methanesulphonanilide]
- antitumour activity (mouse L1210 leukemia): good antitumour activity

Structure (SMILES): CNc1cc(NS(C)(=O)=O)ccc1Nc1c2ccccc2nc2c(C)cccc12 [Compound 12]
- antibacterial activity (Staphylococcus aureus): active
- antibacterial activity (Xanthomonas phaseoli): active
- antibacterial activity (Sarcina lutea): active
- antibacterial activity [1]: active
- ILSmax (percentage increase in lifespan), marked * (P388 leukemia; P388, at OD on days 1, 5, 9, […], >20% statistically significant): 157%
- active (P388) (P388 leukemia): Y
- ILS (percentage increase in lifespan), marked * (Lewis lung carcinoma; Lewis lung, at OD on days 1, 5, 9, […], >40% statistically significant): 159%
- active (Lewis lung) (Lewis lung carcinoma; Lewis lung): Y
- antibacterial activity (Alcaligenes viscolactis): active
- antibacterial activity (Bacillus subtilis): active
- antibacterial activity (Streptococcus faecalis): active
- antibacterial activity (Aerobacter aerogenes): active
- antibacterial activity (Neisseria catarrhalis): active
- antibacterial activity (Escherichia coli): active

Structure (SMILES): CNc1cc(NS(C)(=O)=O)ccc1Nc1c2ccccc2nc2ccccc12 [Compound 1]
- potency and antitumour activity (in words) [2]: increased potency and antitumour activity compared to the unsubstituted AMSA and the 3'-methoxy derivative m-AMSA (amsacrine)
- active (P388) (P388 leukemia): Y
- ILS (percentage increase in lifespan) (Lewis lung carcinoma; [4]): 85%
- active (Lewis lung) (Lewis lung carcinoma; Lewis lung): Y

Structure (SMILES): COc1cc(NS(C)(=O)=O)ccc1Nc1c2ccccc2nc2ccccc12 [m-AMSA, 4'-(9-acridinylamino)methanesulphon-m-anisidide, reference compound]
- antitumour activity / dose potency (in words) [3]: increased dose potency
- ILSmax (percentage increase in lifespan) (P388 leukemia; P388, at OD on days 1, 5, 9, values without asterisk, >20% statistically significant, controls 11 days): 78%
- active (P388) (P388 leukemia): Y
- ILS (percentage increase in lifespan) (Lewis lung carcinoma; [4]): 38%
- active (Lewis lung) (Lewis lung carcinoma; Lewis lung): Y/N
- Lewis lung activity (in words) (Lewis lung carcinoma; tumour implanted intravenously, ILS of 40% required for statistical significance): minimal activity; also recorded: strictly inactive

Source: patent publication US4795826A, “Ortho-phenylenediamine compounds” (priority 1986, dated 1989)
